# Reference: patent publication US20110306035A1, “Methods and Compositions for Detection of a Pathogen, Disease, Medical Condition, or Biomarker Thereof” (priority 2008, published 2011)
# Legend:
# COX enzyme = target: T1, COX enzyme (Coxsackievirus B5, UniProt Q03053); experiment: Assay optimization - solvent with COX enzyme (1:10); type: biochemical, Enterovirus (COX)
# T1 construct: 3D structure modeling of enterovirus 3C protease with it substrate Camb2
# Protocol: Various solvents were tested in order to optimize substrate solubility and stability. […] All the solvents tested were prepared at 0-10% concentrations in 2× reaction buffer and the final concentrations tested were 0-5%. […] Camb 2 was added to the final 2× buffer. For 1,2-Propanediol and 1,3-Propanediol, Camb 2 was first dissolved in the solvent at the appropriate concentration. The solvent+camb2 was then added to 3× reaction buffer to make a final 2× reaction buffer+2 uM camb2. […]
# 1,3-Propanediol with COX enzyme (1:10):
# 3C protease (EV assay) = experiment: Assay optimization - solvent (EV assay, Camb 2); type: biochemical, Enterovirus; details: for effect on reaction rate: all concentrations tested
# Protocol: Various solvents were tested in order to optimize substrate solubility and stability. […] All the solvents tested were prepared at 0-10% concentrations in 2× reaction buffer and the final concentrations tested were 0-5%. […] Camb 2 was added to the final 2× buffer. For 1,2-Propanediol and 1,3-Propanediol, Camb 2 was first dissolved in the solvent at the appropriate concentration. The solvent+camb2 was then added to 3× reaction buffer to make a final 2× reaction buffer+2 uM camb2. All the experiments were performed in the TECAN Polarstar n=1 in triplicates.
# [1] = 1,3-propanediol 1% final, Table 47 GalaxyFLUOstar, second sub-table
# [2] = 1,3-propanediol 2.5% final, Table 47 GalaxyFLUOstar, second sub-table
# [3] = 1,3-propanediol 2.5% final, Table 48 TECAN with nonbiding plate
# [4] = 1,3-propanediol 4% final, Table 47 GalaxyFLUOstar, second sub-table
# [5] = 1,3-propanediol 4% final, Table 48 TECAN with nonbiding plate
# [6] = 1,3-propanediol 5% final, Table 47 GalaxyFLUOstar, first sub-table
# [7] = 1,3-propanediol 5% final, Table 47 GalaxyFLUOstar, second sub-table
# [8] = 1,3-propanediol 5% final, Table 48 TECAN with nonbiding plate
# [9] = Isopropanol 1% final, Table 39 Experiment 1
# [10] = Isopropanol 1% final, Table 40 Experiment 2
# [11] = Isopropanol 2.5% final, Table 39 Experiment 1
# [12] = Isopropanol 2.5% final, Table 40 Experiment 2
# [13] = Isopropanol 4% final, Table 39 Experiment 1
# [14] = Isopropanol 4% final, Table 40 Experiment 2
# [15] = Isopropanol 5% final, Table 39 Experiment 1
# [16] = Isopropanol 5% final, Table 40 Experiment 2
# [17] = Acetonitrile 0.5% final, Table 43 Experiment 2
# [18] = Acetonitrile 1% final, Table 42 Experiment 1
# [19] = Acetonitrile 1% final, Table 43 Experiment 2
# [20] = Acetonitrile 2.5% final, Table 42 Experiment 1
# [21] = Acetonitrile 4% final, Table 42 Experiment 1
# [22] = Acetonitrile 5% final, Table 42 Experiment 1
# [23] = 1,2-propanediol 1% final, Table 50 Galaxy FLUOstar with nonbinding microplate
# [24] = 1,2-propanediol 2.5% final, Table 49 TECAN with nonbinding microplate
# [25] = 1,2-propanediol 2.5% final, Table 50 Galaxy FLUOstar with nonbinding microplate
# [26] = 1,2-propanediol 4% final, Table 49 TECAN with nonbinding microplate
# [27] = 1,2-propanediol 4% final, Table 50 Galaxy FLUOstar with nonbinding microplate
# [28] = 1,2-propanediol 5% final, Table 49 TECAN with nonbinding microplate
# [29] = 1,2-propanediol 5% final, Table 50 Galaxy FLUOstar with nonbinding microplate
# T1 sequence (Q03053 1541-1723): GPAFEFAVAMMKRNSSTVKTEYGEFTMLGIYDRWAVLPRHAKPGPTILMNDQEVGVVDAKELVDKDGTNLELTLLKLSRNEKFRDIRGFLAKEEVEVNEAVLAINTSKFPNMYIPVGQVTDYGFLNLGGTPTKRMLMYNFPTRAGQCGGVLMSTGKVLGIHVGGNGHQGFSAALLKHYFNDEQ
smiles,measurement,setting,value
"OCCCO [1,3-propanediol, 1,3-Propanediol]",Reaction rate Average P.C,"COX enzyme; 1,3-propanediol 1% final, Table 47 GalaxyFLUOstar, first sub-table",3948.19 RFU/min
same,% Loss,COX enzyme; [1],20%
same,Reaction rate Average P.C,COX enzyme; [1],4125.89 RFU/min
same,Reaction rate Average P.C,"COX enzyme; 1,3-propanediol 1% final, Table 48 TECAN with nonbiding plate",7620.53 RFU/min
same,% Loss,COX enzyme; [2],11%
same,Reaction rate Average P.C,COX enzyme; [2],4491.13 RFU/min
same,% Loss,COX enzyme; [3],36%
same,Reaction rate Average P.C,COX enzyme; [3],4681.05 RFU/min
same,% Loss,COX enzyme; [4],42%
same,Reaction rate Average P.C,COX enzyme; [4],2956.26 RFU/min
same,% Loss,COX enzyme; [5],2%
same,Reaction rate Average P.C,COX enzyme; [5],7238.7 RFU/min
same,% Loss,COX enzyme; [6],10%
same,Reaction rate Average P.C,COX enzyme; [6],3072.45 RFU/min
same,% Loss,COX enzyme; [7],47%
same,Reaction rate Average P.C,COX enzyme; [7],2389.47 RFU/min
same,% Loss,COX enzyme; [8],20%
same,Reaction rate Average P.C,COX enzyme; [8],5929.86 RFU/min
CC(C)O [Isopropanol],salt precipitation in reaction buffer,3C protease (EV assay); 4 and 5% final,salt precipitation formed
same,% Loss,3C protease (EV assay); [9],45%
same,Reaction rate Average P.C,3C protease (EV assay); [9],641.57 RFU/min
same,% Loss,3C protease (EV assay); [10],35%
same,Reaction rate Average P.C,3C protease (EV assay); [10],1047.42 RFU/min
same,% Loss,3C protease (EV assay); [11],3%
same,Reaction rate Average P.C,3C protease (EV assay); [11],1143.93 RFU/min
same,% Loss,3C protease (EV assay); [12],50%
same,Reaction rate Average P.C,3C protease (EV assay); [12],806 RFU/min
same,% Loss,3C protease (EV assay); [13],100%
same,Reaction rate Average P.C,3C protease (EV assay); [13],−2.7 RFU/min
same,% Loss,3C protease (EV assay); [14],42%
same,Reaction rate Average P.C,3C protease (EV assay); [14],676.0 RFU/min
same,% Loss,3C protease (EV assay); [15],100%
same,Reaction rate Average P.C,3C protease (EV assay); [15],−4.19 RFU/min
same,% Loss,3C protease (EV assay); [16],75%
same,Reaction rate Average P.C,3C protease (EV assay); [16],394.82 RFU/min
same,effect on reaction rate,3C protease (EV assay),loss in reaction rate
CC#N [Acetonitrile],% Loss,3C protease (EV assay); [17],7%
same,Reaction rate Average P.C,3C protease (EV assay); [17],1257.5 RFU/min
same,% Loss,3C protease (EV assay); [18],43%
same,Reaction rate Average P.C,3C protease (EV assay); [18],1106.6 RFU/min
same,% Loss,3C protease (EV assay); [19],25%
same,Reaction rate Average P.C,3C protease (EV assay); [19],1002.48 RFU/min
same,% Loss,3C protease (EV assay); [20],57%
same,Reaction rate Average P.C,3C protease (EV assay); [20],846.73 RFU/min
same,% Loss,3C protease (EV assay); [21],65%
same,Reaction rate Average P.C,3C protease (EV assay); [21],706.1 RFU/min
same,% Loss,3C protease (EV assay); [22],84%
same,Reaction rate Average P.C,3C protease (EV assay); [22],308.48 RFU/min
same,effect on reaction rate,3C protease (EV assay),loss in reaction rate
"CC(O)CO (centres unmarked) [1,2-propanediol, 1,2-Propanediol]",Reaction rate Average P.C,"COX enzyme; 1,2-propanediol 1% final, Table 49 TECAN with nonbinding microplate",8588.13 RFU/min
same,% Loss,COX enzyme; [23],9%
same,Reaction rate Average P.C,COX enzyme; [23],5689.6 RFU/min
same,% Loss,COX enzyme; [24],20%
same,Reaction rate Average P.C,COX enzyme; [24],6521.1 RFU/min
same,% Loss,COX enzyme; [25],22%
same,Reaction rate Average P.C,COX enzyme; [25],4838.97 RFU/min
same,% Loss,COX enzyme; [26],30%
same,Reaction rate Average P.C,COX enzyme; [26],5013.13 RFU/min
same,% Loss,COX enzyme; [27],30%
same,Reaction rate Average P.C,COX enzyme; [27],4291.04 RFU/min
same,% Loss,COX enzyme; [28],44%
same,Reaction rate Average P.C,COX enzyme; [28],4509 RFU/min
same,% Loss,COX enzyme; [29],47%
same,Reaction rate Average P.C,COX enzyme; [29],3278.19 RFU/min
same,effect on enzymatic activity,COX enzyme; all concentrations tested except 1%,inhibited enzymatic activity
